Results as given in patent publication US20090306098A1 (Cyclacel Limited, priority 2005, published 2009).

How the values were obtained:
H460 cells [1] = assay: Calcusyn drug combination (Alamar blue) in H460 cells; format: cell-based; conditions: HDAC inhibitor combined with seliciclib
A549 cells = conditions: A549 (value in parentheses), combined with seliciclib
Protocol: Experiments were carried out in 96-well plates and the cell lines seeded at a density of 2000/well for A549 and 3000/well for H460. […] Each HDAC inhibitor was then tested in combination with seliciclib using three different treatment regimes: concomitant, seliciclib pre-treatment followed by HDAC inhibitor and HDAC inhibitor pretreatment followed by seliciclib.
The drug concentrations selected were chosen to span the IC50 values for the drugs tested. In the pre-treatment regimes, the first drug was added 2 h after cells were plated, and left for 24 h. Medium was aspirated and replaced with fresh medium containing the second drug, and incubated for 72 h. The two controls for each sequential treatment involved substituting one of the drug treatments with medium.
Seliciclib was tested in combination with the indicated HDAC inhibitors in H460 and A549 cell lines, using three different treatment regimes. […] Data are the average of at least three independent experiments (Table 1).

H460 cells [2] = conditions: H460, 1×IC50; medium 24 h then seliciclib 24 h; FIG. 6
[3] = HDAC inhibitor 24 h then seliciclib 72 h
[4] = seliciclib 24 h then HDAC inhibitor 72 h

Structure (SMILES)	Combination Index at ED50, HDAC inhibitor pretreatment (H460 cells [1]; [3])	Combination Index at ED75, HDAC inhibitor pretreatment (H460 cells [1]; [3])	Combination Index at ED90, HDAC inhibitor pretreatment (H460 cells [1]; [3])	Combination Index at ED50, Concomitant treatment (H460 cells [1]; both drugs 72 h)	Combination Index at ED75, Concomitant treatment (H460 cells [1]; both drugs 72 h)	Combination Index at ED90, Concomitant treatment (H460 cells [1]; both drugs 72 h)	Combination Index at ED50, Seliciclib pretreatment (H460 cells [1]; [4])	Combination Index at ED75, Seliciclib pretreatment (H460 cells [1]; [4])	Combination Index at ED90, Seliciclib pretreatment (H460 cells [1]; [4])	Combination Index at ED50, HDAC inhibitor pretreatment (A549 cells; [3])	Combination Index at ED75, HDAC inhibitor pretreatment (A549 cells; [3])	Combination Index at ED90, HDAC inhibitor pretreatment (A549 cells; [3])	Combination Index at ED50, Concomitant treatment (A549 cells; both drugs 72 h)	Combination Index at ED75, Concomitant treatment (A549 cells; both drugs 72 h)	Combination Index at ED90, Concomitant treatment (A549 cells; both drugs 72 h)	Combination Index at ED50, Seliciclib pretreatment (A549 cells; [4])	Combination Index at ED75, Seliciclib pretreatment (A549 cells; [4])	Combination Index at ED90, Seliciclib pretreatment (A549 cells; [4])	overall cell cycle distribution (H460 cells [2])
CCCC(=O)[O-].[Na+] [Butyrate, sodium butyrate]	0.74	0.53	0.40	0.82	0.59	0.44	0.88	0.68	0.57	0.95	0.71	0.60	1.21	0.87	0.64	1.08	0.88	0.75	–
CCCC(CCC)C(=O)[O-].[Na+] [Sodium valproate, sodium 2-propylpentanoate]	–	–	0.84	–	–	1.07	–	–	0.81	–	–	–	–	–	–	–	–	–	–
CC[C@H](CO)Nc1nc(NCc2ccccc2)c2ncn(C(C)C)c2n1 [seliciclib, 2-(1-R-hydroxymethylpropylamino)-6-benzylamino-9-isopropylpurine]	–	–	–	–	–	–	–	–	–	–	–	–	–	–	–	–	–	–	no significant impact
